Experimental findings from paper PMC12669040, “Tumour-specific STING agonist synthesis via a two-component prodrug system” (Nature Chemistry, 2025) are described below.

SMILES strings stand for the structures.

In the assay the test system is serum cytokines. Description: Multiplexed cytokine profiling of sera, MC38 model. Format: in vivo, C57BL/6 mice. The following applies: sera obtained on Day 9, PBS = 1. As for the experimental part: This study used Luminex xMAP technology for multiplexed quantification of 44 mouse cytokines, chemokines and growth factors. The multiplexing analysis was performed using the Luminex 200 system (Luminex) by Eve Technologies Corp. […] markers were simultaneously measured in the samples using Eve Technologies’ Mouse Cytokine 44-Plex Discovery Assay, which consists of two separate kits, one 32-plex and one 12-plex (MilliporeSigma), following the manufacturer’s protocol. […] The sensitivities of individual analytes are available in the MilliporeSigma MILLIPLEX MAP protocol. […] MC-38 cells were inoculated into the right flank of C57BL/6 mice and treated once tumors reached about 90 mm^3. […] Source data

`COc1cc2cc(C(=O)CCC(=O)O)sc2cc1OC` [MSA2] returned a CCL3 of 1.442, a CCL4 of 0.7068, a CCL12 of 5.215 and a CXCL2 of 1.851. Also, the EPO is recorded as 1.36, the G-CSF is listed as 2.042, the IFNγ was determined as 0.4672 and the IL-1β was determined as 1.9772. This compound also showed an IL-3 of 0.512, an IL-6 of 4.186, an IL-12p40 of 0.2035 and an IL-12p70 of 1.442. The IL-15 is on record as 0.4244, the IL-16 is on record as 1.895, the IL-17 was found to be 1.777 and the M-CSF was 0.6463. The TARC amounted to 1.519.
